Test results taken from ChEMBL document CHEMBL2413026, “Synthesis and biological evaluation against Leishmania amazonensis of a series of alkyl-substituted benzophenones” (Bioorg Med Chem, 2013).
≈ marks a conversion by molar mass, not a printed value.

Key:
[1] = Cytotoxicity against mouse peritoneal macrophages after 72 hrs by MTT assay; type: cell-based, Peritoneal macrophage cell
[2] = test system: Leishmania amazonensis; test: Leishmanicidal activity against promastigote form of Leishmania amazonensis MHOM/BR/71973/M2269 after 72 hrs by cell counting; type: functional, organism-based; conditions: MHOM/BR/71973/M2269, 72 h
[3] = Selectivity index, ratio of CC50 for mouse peritoneal macrophages to IC50 for promastigote form of Leishmania amazonensis MHOM/BR/71973/M2269; type: functional
[4] = test system: Leishmania amazonensis; test: Ratio of 4,4'-dihydroxybenzophenone IC50 to compound IC50 for spromastigote forms of Leishmania amazonensis MHOM/BR/71973/M2269 after 72 hrs by cell counting; type: functional

O=C(c1ccccc1)c1ccc(O)cc1
CC50 at 72 h [1]: > 160 µg/mL | IC50 [2]: 40.9 µg/mL (≈ 206 µM)

O=C(c1ccc(O)cc1)c1ccc(O)cc1
CC50 at 72 h [1]: > 160 µg/mL | IC50 [2]: 121 µg/mL (≈ 567 µM)

COc1ccc(C(=O)c2ccccc2)cc1
CC50 at 72 h [1]: 28 µg/mL (≈ 132 µM) | IC50 [2]: 5.05 µg/mL (≈ 23.8 µM)

CCCCOc1ccc(C(=O)c2ccccc2)c(O)c1
CC50 at 72 h [1]: 40.6 µg/mL (≈ 150 µM) | IC50 [2]: 9.8 µg/mL (≈ 36.3 µM)

CC(C)=CCOc1ccc(C(=O)c2ccccc2)c(O)c1
CC50 at 72 h [1]: 140 µg/mL (≈ 496 µM) | IC50 [2]: 7.05 µg/mL (≈ 25 µM) | Ratio CC50/IC50 [3]: 19.86

CCCCOc1ccc(C(=O)c2ccccc2)cc1
CC50 at 72 h [1]: 28.9 µg/mL (≈ 114 µM) | IC50 [2]: 8.56 µg/mL (≈ 33.7 µM)

CC(C)=CCOc1ccc(C(=O)c2ccccc2)cc1
CC50 at 72 h [1]: 87.1 µg/mL (≈ 327 µM) | IC50 [2]: 7.82 µg/mL (≈ 29.4 µM)

CCCCOc1ccc(C(=O)c2ccc(OCCCC)cc2)cc1
CC50 at 72 h [1]: > 160 µg/mL | IC50 [2]: 23.8 µg/mL (≈ 72.9 µM)

CC(C)=CCOc1ccc(C(=O)c2ccc(OCC=C(C)C)cc2)cc1
CC50 at 72 h [1]: > 160 µg/mL | IC50 [2]: 5.94 µg/mL (≈ 16.9 µM) | Ratio IC50 [4]: 250 | Ratio CC50/IC50 [3]: 26.93

O=C(c1ccccc1)c1ccc(O)cc1O [2,4-DIHYDROXYBENZOPHENONE]
CC50 at 72 h [1]: > 160 µg/mL | IC50 [2]: 29 µg/mL (≈ 135 µM)

C[C@@H]1[C@H](O)[C@@H](C)/C=C/C=C/C=C/C=C/C=C/C=C/C=C/[C@H](O[C@@H]2O[C@H](C)[C@@H](O)[C@H](N)[C@@H]2O)C[C@@H]2O[C@](O)(C[C@@H](O)C[C@@H](O)[C@H](O)CC[C@@H](O)C[C@@H](O)CC(=O)O[C@H]1C)C[C@H](O)[C@H]2C(=O)O [AMPHOTERICIN B]
CC50 at 72 h [1]: 25 µg/mL (≈ 27.1 µM) | IC50 [2]: 4.7 µg/mL (≈ 5.09 µM) | Ratio CC50/IC50 [3]: 5.32

COc1ccc(C(=O)c2ccccc2)c(O)c1 [OXYBENZONE]
CC50 at 72 h [1]: 24.6 µg/mL (≈ 108 µM) | IC50 [2]: 4.9 µg/mL (≈ 21.5 µM)

N=C(N)c1ccc(OCCCCCOc2ccc(C(=N)N)cc2)cc1 [PENTAMIDINE]
CC50 at 72 h [1]: 3.82 µg/mL (≈ 11.2 µM) | IC50 [2]: 0.44 µg/mL (≈ 1.29 µM) | Ratio CC50/IC50 [3]: 8.68
